Experimental data reported in US20230102554A1 (GB002, INC., priority 2019, published 2023).

Columns and labels:
[1] = target: T1, Human PDGFRα, cytoplasmic domain (GST-PDGFRα) (Homo sapiens, UniProt P16234); assay: Human PDGFRα biochemical inhibition assay (off-chip Mobility Shift Assay)
T1 construct: made in house

[2] = target: T2, Human PDGFRβ, cytoplasmic domain (GST-PDGFRβ) (Homo sapiens, UniProt P09619); assay: Human PDGFRβ biochemical inhibition assay (off-chip Mobility Shift Assay)
T2 construct: made in house
Summary of the method: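 GST-tagged cytoplasmic domain (aa 557-1106) from baculovirus was incubated 1 h at room temperature with compound, CSKtide, ATP at Km and Mg²⁺ in HEPES buffer, pH 7.5. Phosphorylated and unphosphorylated peptide were separated by off-chip mobility shift, and the product ratio P/(P+S) gave percent inhibition.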

T2 sequence (P09619 with tags, fused parts or gaps): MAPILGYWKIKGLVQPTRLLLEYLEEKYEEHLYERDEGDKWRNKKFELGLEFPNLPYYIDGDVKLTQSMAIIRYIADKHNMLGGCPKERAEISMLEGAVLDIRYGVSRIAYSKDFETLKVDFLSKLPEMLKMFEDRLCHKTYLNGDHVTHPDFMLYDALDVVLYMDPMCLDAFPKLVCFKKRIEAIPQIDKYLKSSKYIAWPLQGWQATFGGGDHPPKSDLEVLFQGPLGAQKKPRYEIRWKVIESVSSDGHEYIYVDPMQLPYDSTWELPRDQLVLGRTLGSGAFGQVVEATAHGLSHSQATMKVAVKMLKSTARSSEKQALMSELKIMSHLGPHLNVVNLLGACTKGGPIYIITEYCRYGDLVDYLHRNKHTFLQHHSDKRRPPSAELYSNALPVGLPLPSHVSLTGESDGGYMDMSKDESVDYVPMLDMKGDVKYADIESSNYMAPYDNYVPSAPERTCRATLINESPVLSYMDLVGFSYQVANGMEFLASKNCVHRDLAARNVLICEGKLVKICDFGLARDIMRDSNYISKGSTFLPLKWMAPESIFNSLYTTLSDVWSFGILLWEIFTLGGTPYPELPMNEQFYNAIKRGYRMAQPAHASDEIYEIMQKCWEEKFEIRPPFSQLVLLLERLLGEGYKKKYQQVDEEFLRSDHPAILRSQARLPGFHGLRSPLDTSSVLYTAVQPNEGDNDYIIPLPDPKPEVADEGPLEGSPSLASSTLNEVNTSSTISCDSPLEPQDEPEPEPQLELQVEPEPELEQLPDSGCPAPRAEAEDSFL
T1 sequence (P16234 550-1089 T674I): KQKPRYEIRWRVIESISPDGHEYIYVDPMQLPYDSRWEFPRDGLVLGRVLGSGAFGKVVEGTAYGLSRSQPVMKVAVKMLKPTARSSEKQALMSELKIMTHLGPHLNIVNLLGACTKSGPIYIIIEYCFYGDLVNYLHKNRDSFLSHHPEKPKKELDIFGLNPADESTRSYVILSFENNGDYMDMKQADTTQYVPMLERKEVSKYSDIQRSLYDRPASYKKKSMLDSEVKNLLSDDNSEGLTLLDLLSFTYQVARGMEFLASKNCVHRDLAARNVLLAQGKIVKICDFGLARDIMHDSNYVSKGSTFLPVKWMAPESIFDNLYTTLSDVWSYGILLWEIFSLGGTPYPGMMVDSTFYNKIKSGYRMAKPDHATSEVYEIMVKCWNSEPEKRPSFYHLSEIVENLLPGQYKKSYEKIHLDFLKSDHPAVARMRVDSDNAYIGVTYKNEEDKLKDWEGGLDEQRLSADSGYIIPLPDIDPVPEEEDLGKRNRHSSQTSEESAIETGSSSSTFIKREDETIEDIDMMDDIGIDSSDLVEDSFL

SMILES | IC50 [1] [nM] | IC50 [2] [nM]
CCn1cc2ncc(N[C@@H](C)c3cccc(NC(=O)c4cnc(C5CC5)c(C)c4)c3)nc2n1 [Compound 321, (S)-6-cyclopropyl-N-(3-(1-((2-ethyl-2H-pyrazolo[3,4-b]pyrazin-6-yl)amino)ethyl)phenyl)-5-methylnicotinamide] | < 300 | < 300
CCOc1ccc(C(=O)Nc2cccc([C@H](C)Nc3cnc4[nH]nc(C)c4n3)c2)cn1 [Compound 537, (S)-6-ethoxy-N-(3-(1-((3-methyl-1H-pyrazolo[3,4-b]pyrazin-5-yl)amino)ethyl)phenyl)nicotinamide] | < 300 | < 300
CCn1cc2ncc(N[C@@H](C)c3cc(NC(=O)Cc4ccc(Cl)cn4)ccc3C)nc2n1 [Compound 657, (S)-2-(5-chloropyridin-2-yl)-N-(3-(1-((2-ethyl-2H-pyrazolo[3,4-b]pyrazin-6-yl)amino)ethyl)-4-methylphenyl)acetamide] | < 300 | < 300
CC(=O)OC(C)OC(=O)c1ccc(C(=O)Nc2cccc([C@H](C)Nc3cnc4cnn(C)c4n3)c2)cc1C (stereo partly drawn) [Compound 256, 1-acetoxyethyl 2-methyl-4-((3-((S)-1-((1-methyl-1H-pyrazolo[3,4-b]pyrazin-6-yl)amino)ethyl)phenyl)carbamoyl) benzoate] | < 300 | < 300
CCn1cc2ncc(N[C@@H](C)c3cc(NC(=O)c4ccc(CN5CCN(C)CC5)c(Cl)c4)ccc3F)nc2n1 [Compound 429, (S)-3-chloro-N-(3-(1-((2-ethyl-2H-pyrazolo[3,4-b]pyrazin-6-yl)amino)ethyl)-4-fluorophenyl)-4-((4-methylpiperazin-1-yl)methyl)benzamide] | < 300 | < 300
CCn1cc2ncc(N[C@@H](C)c3cc(NC(=O)Cc4cc(Cl)ccn4)ccc3C)nc2n1 [Compound 677, (6)-2-(4-chloropyridin-2-yl)-N-(3-(1-((2-ethyl-2H-pyrazolo[3,4-b]pyrazin-6-yl)amino)ethyl)-4-methylphenyl)acetamide] | < 300 | < 300
CCn1cc2ncc(N[C@@H](C)c3cccc(NC(=O)c4cc(F)c(CN5CCN(C)CC5)c(Cl)c4)c3)nc2n1 [Compound 489, (S)-3-chloro-N-(3-(1-((2-ethyl-2H-pyrazolo[3,4-b]pyrazin-6-yl)amino)ethyl)phenyl)-5-fluoro-4-((4-methylpiperazin-1-yl)methyl)benzamide] | < 300 | < 300
CCCOC(=O)c1ccc(C(=O)Nc2cccc([C@H](C)Nc3cnc4cnn(C)c4n3)c2)cc1C [Compound 254, propyl (S)-2-methyl-4-((3-(1-((1-methyl-1H-pyrazolo[3,4-b]pyrazin-6-yl)amino)ethyl)phenyl)carbamoyl)benzoate] | < 300 | < 300
CC(C)Cn1ccc(C(=O)Nc2cccc([C@H](C)Nc3cnc4cnn(C)c4n3)c2)n1 [Compound 157, (S)-1-isobutyl-N-(3-(1-((1-methyl-1H-pyrazolo[3,4-b]pyrazin-6-yl)amino)ethyl)phenyl)-1H-pyrazole-3-carboxamide] | < 300 | < 300
CCn1ncc2ncc(N[C@@H](C)c3cccc(NC(=O)c4cncc(C)c4)c3)cc21 [Compound 7] | < 300 | ≥ 1000
CCn1cc2ncc(N[C@@H](C)c3cc(NC(=O)c4ccc(OC(F)F)nc4)ccc3C)nc2n1 [Compound 511, (S)-6-(difluoromethoxy)-N-(3-(1-((2-ethyl-2H-pyrazolo[3,4-b]pyrazin-6-yl)amino)ethyl)-4-methylphenyl)nicotinamide] | < 300 | < 300
C[C@H](Nc1cnc2cnn(C)c2n1)c1cccc(NC(=O)c2cnn(C(C)(C)C)c2)c1 [Compound 148, (S)-1-(tert-butyl)-N-(3-(1-((1-methyl-1H-pyrazolo[3,4-b]pyrazin-6-yl)amino)ethyl)phenyl)-1H-pyrazole-4-carboxamide] | < 300 | < 300
